# Entries after “also recorded” stand apart in the source; their conditions may differ.
# Columns and labels:
# [1] = test system: Balb/c mice treated with CCl4; assay: Hepatic injury and hepatic fibrosis induced by CCl4 in mice; type: in vivo, mouse; settings: for hepatic injury (H&E staining): 50 mg/kG oral administration or IP, 3 times/week; for hepatic injury (H&E staining) / collagen type I expression (Masson's Trichrome staining): 2 weeks; for collagen type I expression (Masson's Trichrome staining): oral administration or IP, 50 mg/kG; for Ser10 phosphorylation induction (p27) / TM4SF5 signal transduction process (phosphorylation of Smad3, phosphorylation and activation of EFGR/Erk) / p27 expression / α-SMA expression induction: liver tissue extract, Western blotting
# Method: Balb/c mice (5 weeks old, n=5) were used. The mice were fed with sterilized water and feeds. For the biological day/night cycle, the indoor light was turned on for 12 hours and off for 12 hours. The mice were treated with CCl4 or ethanol for 2 weeks. The CCl4 group mice were treated with 40% CCl4 diluted in olive oil by intraperitoneal administration ([…], 3 times/week). The CCl4-ContComp group mice were treated with 4′-Amino-4-hydroxychalcone, the control compound (ContComp), every other day and every next day of CCl4 treatment by IP (intraperitoneal injection) or oral administration (50 mg/kG, 40% DMSO, 3 times/week). The CCl4-TSAHC group mice were treated with TSAHC every other day and every next day of CCl4 treatment by IP (intraperitoneal injection) or oral administration (50 mg/kG, 40% DMSO, 3 times/week).
# Two weeks later, the mice were sacrificed by using ether. The liver was extracted from the sacrificed animal of each group. Paraffin samples were prepared by the same manner as described in Example 5. The paraffin sections in the thickness of 4-5 μm were fixed on slide, followed by H&E (hematoxylin and eosin) staining for the confirmation of hepatic injury, Masson's Trichrome […] staining for collagen type I staining, and immunihistochemistry with the antibody (1:1500) against α-SMA (smooth muscle actin, Sigma).
# Additionally, two mice were randomly selected from each group, from which liver tissue extract was prepared. The protein in the extract was quantified, followed by Western blotting with antibodies against phospho-Y^1173EGFR (Santa Cruz Biotechnology, Santa Cruz, Calif.), phospho-Y^1068EGFR (Santa Cruz Biotechnology, Santa Cruz, Calif.), EGFR (Santa Cruz Biotechnology, Santa Cruz, Calif.), phospho-Erk (Cell Signaling Technology, Danvers, Mass.), Erk (Cell Signaling Technology, Danvers, Mass., USA), phospho-Smad3 (Cell Signaling Technology, Danvers, Mass.), TM4SF5 (antibody of Example 1), α-SMA (smooth muscle actin, Sigma), phospho-S^10-p27 (Santa Cruz Biotechnology, Santa Cruz, Calif., USA), p27 (BD Transduct. Lab. San Jose Calif., USA), and α-tubulin (Sigma-Aldrich).
# TM4SF5 [2] = target: T1, TM4SF5 (Mus musculus, UniProt F6X2F3); assay: TGFβ mediated α-SMA expression in normal hepatocytes (AML12 cells) treated with TM4SF5 antagonist, Western blotting; type: cell-based
# T1 construct: normal hepatocytes were treated with TGFβ to induce TM4SF5 expression and EMT, during which TSAHC was treated; endogenous in cells; host or cells: AML12 (ATCC), TGFβ-treated
# T1 sequence (F6X2F3 1-196): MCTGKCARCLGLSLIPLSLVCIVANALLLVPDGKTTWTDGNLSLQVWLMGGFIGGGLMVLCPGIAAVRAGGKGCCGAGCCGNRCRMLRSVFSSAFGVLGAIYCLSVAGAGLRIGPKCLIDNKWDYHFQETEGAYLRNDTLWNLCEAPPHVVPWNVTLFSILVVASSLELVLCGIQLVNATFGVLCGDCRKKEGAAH
# Method: FIG. 25 is a set of photographs illustrating the results of Western blotting performed to confirm the level of α-SMA expression induced by TGFβ in AML12 cells treated with TSAHC and […].
# First, normal hepatocytes were treated with TGFβ to induce TM4SF5 expression and EMT, during which TSAHC was treated. As described hereinbefore, the normal hepatocytes were washed with serum-free DMEM, followed by serum starvation for 4 hours. Then, the cells treated with TGFβ to induce TM4SF5 expression. 6 hours later, the cells were treated with TSAHC at the concentration of 5 μM or 10 μM, followed by culture for 18 hours. The expression of α-SMA protein was investigated.
# For the comparison, the cells were treated with the control compound that had similar structure to TSAHC but had substituted R residue (4′-amino-4-hydroxychalcone) at the same concentration as the above (5 μM or 10 μM).
# Chang cells = assay: TM4SF5 expression and EGFR signal transduction system over treatment times of TGFβ and EGF in Chang cells; type: cell-based, human
# Method: Chang cells were cultured in DMEM supplemented with 10% FBS, which were then washed with serum-free DMEM. The cells were maintained as serum-free status for 4 hours. […] Then, TM4SF5 expression and EGFR signal transduction system were investigated.
# AML12 cells = assay: TM4SF5 expression in AML12 cells treated with EGF, HGF and PDGF before TGFβ; type: cell-based, mouse; settings: growth factor 30 minutes before TGFβ (2.5 ng/ml), 24 hours, serum-free
# Method: AML12 cells were cultured in DMEM supplemented with 10% FBS, which were then washed with serum-free DMEM. The cells were maintained as serum-free status for 4 hours. After serum starvation, the cells were treated with EGF, HGF, and PDGF (PeproTech, Inc., Rocky Hill, N.J., USA) 30 minutes before the treatment of TGFβ (2.5 ng/ml) in order to activate EGFR signaling. The cells were further cultured for 24 hours after the treatment of TGFβ. AML12 cell line was the normal hepatocyte cell line which was sensitive to serum. To make near death condition, the medium was regulated as serum-free and the experiment was carried out under the serum-free condition and ITS (Insulin, transferrin, selenium, Sigma-Aldrich) treated condition, which was the same serum-free condition as mentioned above.
# Western blotting was performed to confirm TM4SF5 expression. As a result, when the cells were treated with EGF, HGF, and PDGF, EGFR signaling was activated and thereby TM4SF5 expression was increased (FIG. 11).
# TM4SF5 [3] = target: T1, TM4SF5; assay: TGFβ1 mediated vimentin expression in AML12 cells, Western blotting; type: cell-based; settings: 5 μM or 10 μM
# Method: FIG. 27 is a set of photographs illustrating the results of Western blotting performed to confirm the level of vimentin expression mediated by TGFβ in AML12 cells treated with TSAHC, 4′-(p-aminobenzenesulfoneamide)-4-hydroxychalcone, and 4,4-dihydroxychalcone.
# (§1) In addition, 4′-(p-aminobenzenesulfonamide)-4-hydroxychalcone (ASAHC), the water-soluble […], was treated to AML12 and Chang cells at the concentration of 5 μM or 10 μM.
# TM4SF5 [4] = target: T2, TM4SF5 (Homo sapiens, UniProt O14894); assay: TGFβ1 mediated vimentin expression in Chang cells, Western blotting; type: cell-based; settings: 5 μM or 10 μM
# T2 construct: endogenous in cells; host or cells: Chang cells (ATCC), TGFβ-treated
# T2 sequence (O14894 1-197): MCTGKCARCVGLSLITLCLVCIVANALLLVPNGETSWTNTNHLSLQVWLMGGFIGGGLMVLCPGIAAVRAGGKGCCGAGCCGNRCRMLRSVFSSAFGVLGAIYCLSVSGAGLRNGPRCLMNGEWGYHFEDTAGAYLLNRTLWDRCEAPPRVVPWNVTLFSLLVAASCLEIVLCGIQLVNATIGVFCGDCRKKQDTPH
# Method: FIG. 26 is a set of photographs illustrating the results of Western blotting performed to confirm the level of vimentin expression mediated by TGFβ in Chang cells treated with TSAHC, 4′-(p-aminobenzenesulfoneamide)-4-hydroxychalcone, and 4,4-dihydroxychalcone.
# as §1
# [5] = liver tissue of CCl4 treated mice
# [6] = AML12 cells, compound 5 μM or 10 μM 6 hours after TGFβ, culture for 18 hours, Western blotting
compound,measurement,setting,value
"Nc1ccc(C(=O)/C=C/c2ccc(O)cc2)cc1 [4′-amino-4-hydroxychalcone, reference compound]",hepatic injury (H&E staining),[1]; CCl4 together with compound,CCl4 dependency was not observed
same,collagen type I expression (Masson's Trichrome staining),[1]; CCl4 together with compound,not detected
same,Ser10 phosphorylation induction (p27),[1],not inhibited
same,"TM4SF5 signal transduction process (phosphorylation of Smad3, phosphorylation and activation of EFGR/Erk)",[1],not affected
same,p27 expression,[1],not inhibited
same,α-SMA expression induction,[1],not inhibited
same,EMT,[1]; [5],not inhibited
same,TGFβ mediated α-SMA expression,TM4SF5 [2]; [6],did not affect
same,TM4SF5 expression,TM4SF5 [2]; [6],did not affect
EGF: growth factor (PeproTech) used to activate EGFR signaling,"EGFR signal transduction system activation and TM4SF5 expression, EGF only",Chang cells; EGF only for 4 hours at different concentrations,not particularly induced
same,EGFR signal transduction system activation and TM4SF5 expression over time,"Chang cells; TGFβ (2.5 ng/ml) and EGF (50 ng/ml), 0, 0.5, 1, 2, and 24 hours",induced temporally
same,TM4SF5 expression,AML12 cells,increased
"Nc1ccc(S(=O)(=O)Nc2ccc(C(=O)/C=C/c3ccc(O)cc3)cc2)cc1 [ASAHC, 4′-(p-aminobenzenesulfonylamino)-4-hydroxychalcone]",TGFβ1 mediated vimentin expression,TM4SF5 [3],down-regulated
same,TGFβ1 mediated vimentin expression,TM4SF5 [4],down-regulated
HGF: growth factor (PeproTech) used to activate EGFR signaling,TM4SF5 expression,AML12 cells,increased
"O=C(/C=C/c1ccc(O)cc1)c1ccc(O)cc1 [4′4-dihydroxychalcone, reference compound]",TGFβ1 mediated vimentin expression,TM4SF5 [3],not much changed
same,TGFβ1 mediated vimentin expression,TM4SF5 [4],not much changed
PDGF,TM4SF5 expression,AML12 cells,increased
"Cc1ccc(S(=O)(=O)Nc2ccc(C(=O)/C=C/c3ccc(O)cc3)cc2)cc1 [TSAHC, 4′-(p-toluenesulfonylamino)-4-hydroxychalcone]",TGFβ1 mediated vimentin expression,TM4SF5 [3],down-regulated
same,hepatic injury (H&E staining),[1]; CCl4 together with compound,reduced
same,α-SMA expression (immunohistochemical staining),"[1]; CCl4 together with compound, liver tissue",reduced
same,collagen type I expression (Masson's Trichrome staining),[1]; CCl4 together with compound,decrease; also recorded: reduced
same,"liver H&E staining, compound only","[1]; group treated with compound only, without CCl4",normal liver
same,Ser10 phosphorylation induction (p27),[1],inhibited
same,"TM4SF5 signal transduction process (phosphorylation of Smad3, phosphorylation and activation of EFGR/Erk)",[1],not affected
same,p27 expression,[1],inhibited
same,α-SMA expression induction,[1],inhibited
same,EMT,[1]; [5],decrease; also recorded: inhibited
same,TM4SF5 activity,[1]; [5],suppressed
same,TGFβ1 mediated vimentin expression,TM4SF5 [4],down-regulated
same,TGFβ mediated α-SMA expression,TM4SF5 [2]; [6],significantly reduced; also recorded: inhibit
same,EFGR/Erk phosphorylation,TM4SF5 [2]; normal hepatocytes treated with TGFβ and compound,reduced
